Source: patent US6538035B2, “Use of tolterodine to treat asthma” (Pharmacia & Upjohn Company, priority 2000, dated 2003)

Legend:
asthma = test: treatment of a patient with asthma by inhalation, morning peak flow; format: in vivo, human; conditions: person
Experimental: A person with a history of asthma with a morning peak flow of less than 2 l/sec is treated with 2-(diisopropylamino)ethyl-1-phenylcyclopentanecarboxylate powder 0.1 mg every 8 hr continuously. Treatment improves the peak flow to 4-5 l/sec.
A person with a history of severe asthma with a morning peak flow of 5 l/sec is treated with tolterodine powder 6 mg once a day continuously. After a week of treatment the peak flow improves to 9 l/sec.
A person with a history of severe asthma with a morning peak flow of less than 3 l/sec is treated with tolterodine aerosol 2 mg three times daily continuously. After a week of treatment the peak flow improves to 6 l/sec.

chronic COPD = test: treatment of a patient with chronic COPD by inhalation; format: in vivo, human; conditions: person
Experimental: A person with a history of chronic COPD with FEV1 of 1.5 liters is treated with tolterodine aerosol 1 mg every 12 hr continuously for dyspnea. After two weeks of therapy dyspnea tolerance is improved.
A person with a history of chronic COPD with FEV1/FVC of 60% liters is treated with hydroxytolterodine aerosol 2 mg every 8 hr continuously for dyspnea. After a week of treatment the FEV1/FVC ratio improves to about 65%.

## CC(C)N(CCOC(=O)C1(c2ccccc2)CCCC1)C(C)C [2-(diisopropylamino)ethyl-1-phenylcyclopentanecarboxylate]
asthma; asthma, baseline morning peak flow less than 2 l/sec, powder 0.1 mg every 8 hr continuously
  peak flow: 4 to 5 L/s

## CC(C)N(CC[C@H](c1ccccc1)c1cc(CO)ccc1O)C(C)C [hydroxytolterodine, 2-[(1R)-3-(diisopropylamino)-1-phenylpropyl]-4-(hydroxymethyl)phenol]
Chronic COPD; baseline FEV1/FVC of 60%, aerosol 2 mg every 8 hr continuously, after a week of treatment
  FEV1/FVC ratio: about 65%

## Cc1ccc(O)c([C@H](CCN(C(C)C)C(C)C)c2ccccc2)c1 [tolterodine, 2-[(1R)-3-(diisopropylamino)-1-phenylpropyl]-4-methylphenol]
Chronic COPD; FEV1 of 1.5 liters, aerosol 1 mg every 12 hr continuously, after two weeks of therapy
  dyspnea tolerance: improved
asthma; severe asthma, baseline morning peak flow 5 l/sec, powder 6 mg once a day continuously, after a week
  peak flow: 9 L/s
asthma; severe asthma, baseline morning peak flow less than 3 l/sec, aerosol 2 mg three times daily continuously, after a week
  peak flow: 6 L/s
